Test results: patent publication US20240239767A1 (AstraZeneca AB, priority 2022, published 2024)

Tests used:
[1] = molecular target: PCSK9 (Homo sapiens, UniProt Q8NBP7); assay: Assay 2 - Biophysical human PCSK9 assay (SPR, Biacore); assay type: binding; parameters: biotinylated human PCSK9 (31-692)-Avi-His6; conditions: geometric mean; SPR single-cycle kinetics, 30° C.; read-out: Assay 2 (PCSK9 BIAcore DBA CR) GMean Kd
Experimental: The SPR binding experiments were performed on a Biacore S200 optical biosensor unit at 30° C. A Series S Sensor Chip SA that is designed to bind biotinylated molecules for interaction analysis in Biacore systems was equilibrated at room temperature prior to use. The running buffer for protein tethering and subsequent ligand binding experiments was 10 mM HEPES pH 7.4, 150 mM NaCl, 0.05% (v/v) Tween 20 pH 7.4.
For the surface tethering of PCSK9, biotinylated human PCSK9 (31-692)-Avi-His6 at a concentration of 0.5 mg/mL was used. Prior to the surface tethering, the surface was exposed to a solution of 50 mM NaOH, 500 mM NaCl via 3 consecutive injections of this solution with a contact time of 60 s and a flowrate of 10 μL min- to remove non-conjugated streptavidin. The PCSK9 protein was diluted to a concentration of 20 μg/mL using running buffer and injected with a contact time of 180-300 s and a flowrate of 10 μL min^−1 over a single flow channel (typically flow channel 2 or flow channel 4) with the aim to achieve protein capture levels of >5000 response units (RU). Remaining biotin binding sites were blocked via 2 consecutive injections of a 10 μM D-biotin solution in running buffer with a contact time of 60 s and a flowrate of 10 μL min^−1 over all flow-channels.
The binding experiments were all performed at a flow rate of 30 μL min^−1 and by employing the method of single-cycle kinetics. This approach involves the sequential injection of a compound concentration series without regeneration steps. A contact time between 90-150 s was selected, which was followed by a 40 min dissociation phase to allow for a proper estimation of the dissociation rate constant. Test compounds were delivered in DMSO at a concentration of 10 mM and a digital dispenser HP D300 was used to set up the compound concentration series using 6 concentrations. The tested concentrations have been 30, 100, 300, 1000, 3000 and 10000 nM. Prior to injecting any compound, the surfaces were equilibrated by injecting running buffer over them in three separate pulses. The data collection rate was set to 10 Hz.
The raw sensorgrams of the compound injections were first subjected to reference subtraction (subtracting the signal from flow channel 1 and/or 3 from the signal from channels 2 and/or 4 respectively) and then blank subtraction (subtracting the signal from injecting DMSO controls from the reference subtracted data). The resulting double-referenced sensorgrams were then fitted using a 1:1 binding interaction model using the manufactures software package to extract kinetic- and affinity data.

[2] = molecular target: GSK3b (Glycogen synthase kinase-3 beta) (Homo sapiens, UniProt P49841); assay: Assay 6 - GSK3b assay (ThermoFisher, FRET Z-Lyte); assay type: biochemical; conditions: geometric mean; ATP Conc: 10.000 μM; read-out: Assay 6 (GSK3B FRET-Z-Lyte CR) GMean IC50 (μM) ATP Conc: 10.000
GSK3b (Glycogen synthase kinase-3 beta), sequence (P49841 whole entry): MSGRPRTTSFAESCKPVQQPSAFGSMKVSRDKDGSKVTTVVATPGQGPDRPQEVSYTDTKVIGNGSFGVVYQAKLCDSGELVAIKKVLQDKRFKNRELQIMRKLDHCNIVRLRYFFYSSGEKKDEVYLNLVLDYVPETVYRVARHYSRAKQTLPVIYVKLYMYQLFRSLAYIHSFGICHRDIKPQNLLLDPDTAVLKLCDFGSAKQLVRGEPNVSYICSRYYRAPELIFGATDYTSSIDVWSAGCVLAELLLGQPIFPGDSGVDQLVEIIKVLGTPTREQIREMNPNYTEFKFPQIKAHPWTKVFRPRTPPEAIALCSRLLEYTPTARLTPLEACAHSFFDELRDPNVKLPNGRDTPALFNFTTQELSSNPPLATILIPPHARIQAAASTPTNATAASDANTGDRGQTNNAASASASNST
Summary of the method: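 Z-Lyte FRET kinase assay: 0.22-0.92 ng GSK3β with 2 μM Ser/Thr 09 peptide in 50 mM HEPES pH 7.5, 10 mM MgCl2, 1 mM EGTA, 0.01% BRIJ-35, 60 min at room temperature, then 60 min development. Compounds in 1% DMSO, 10-point 3-fold dilutions from 10 μM; sigmoidal dose-response fit.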

[3] = molecular target: T1, PCSK9 (Homo sapiens, UniProt Q8NBP7, G670E/V474I); assay: biochemical
Target sequence in this assay (Q8NBP7 with tags, fused parts or gaps V474I/G670E): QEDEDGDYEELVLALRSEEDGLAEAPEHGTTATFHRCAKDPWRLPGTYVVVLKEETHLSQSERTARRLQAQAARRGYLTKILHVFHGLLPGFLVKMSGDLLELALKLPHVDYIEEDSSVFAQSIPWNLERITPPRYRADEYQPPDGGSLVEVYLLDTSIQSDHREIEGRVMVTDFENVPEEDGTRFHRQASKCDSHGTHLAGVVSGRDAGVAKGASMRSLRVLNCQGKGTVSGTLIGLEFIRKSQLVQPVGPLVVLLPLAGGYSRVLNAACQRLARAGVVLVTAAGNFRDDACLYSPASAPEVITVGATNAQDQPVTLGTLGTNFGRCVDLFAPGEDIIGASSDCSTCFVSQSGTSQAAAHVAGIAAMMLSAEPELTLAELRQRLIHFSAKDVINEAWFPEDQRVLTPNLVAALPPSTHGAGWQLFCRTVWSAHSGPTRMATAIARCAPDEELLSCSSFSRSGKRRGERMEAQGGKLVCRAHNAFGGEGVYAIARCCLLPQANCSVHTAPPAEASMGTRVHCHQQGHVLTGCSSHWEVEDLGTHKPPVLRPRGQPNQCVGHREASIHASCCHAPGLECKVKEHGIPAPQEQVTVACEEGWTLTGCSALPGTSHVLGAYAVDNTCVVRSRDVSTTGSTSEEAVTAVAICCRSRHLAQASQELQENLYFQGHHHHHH

[4] = molecular target: T2, potassium ion channel hERG (human Ether-á-go-go-Related Gene) (Homo sapiens, UniProt Q12809); assay: Assay 5 - hERG assay (SyncroPatch 384PE patch clamp, CHO cells); assay type: cell-based; conditions: geometric mean, CHO cells over-expressing hERG, read-out: Assay 5 (hERG Hu CHO IF EPh CR-Syncro) GMean IC50
T2 construct: expressed in transfected cells; host or cells: Chinese hamster ovary K1 (CHO)
T2 sequence (Q12809 whole entry): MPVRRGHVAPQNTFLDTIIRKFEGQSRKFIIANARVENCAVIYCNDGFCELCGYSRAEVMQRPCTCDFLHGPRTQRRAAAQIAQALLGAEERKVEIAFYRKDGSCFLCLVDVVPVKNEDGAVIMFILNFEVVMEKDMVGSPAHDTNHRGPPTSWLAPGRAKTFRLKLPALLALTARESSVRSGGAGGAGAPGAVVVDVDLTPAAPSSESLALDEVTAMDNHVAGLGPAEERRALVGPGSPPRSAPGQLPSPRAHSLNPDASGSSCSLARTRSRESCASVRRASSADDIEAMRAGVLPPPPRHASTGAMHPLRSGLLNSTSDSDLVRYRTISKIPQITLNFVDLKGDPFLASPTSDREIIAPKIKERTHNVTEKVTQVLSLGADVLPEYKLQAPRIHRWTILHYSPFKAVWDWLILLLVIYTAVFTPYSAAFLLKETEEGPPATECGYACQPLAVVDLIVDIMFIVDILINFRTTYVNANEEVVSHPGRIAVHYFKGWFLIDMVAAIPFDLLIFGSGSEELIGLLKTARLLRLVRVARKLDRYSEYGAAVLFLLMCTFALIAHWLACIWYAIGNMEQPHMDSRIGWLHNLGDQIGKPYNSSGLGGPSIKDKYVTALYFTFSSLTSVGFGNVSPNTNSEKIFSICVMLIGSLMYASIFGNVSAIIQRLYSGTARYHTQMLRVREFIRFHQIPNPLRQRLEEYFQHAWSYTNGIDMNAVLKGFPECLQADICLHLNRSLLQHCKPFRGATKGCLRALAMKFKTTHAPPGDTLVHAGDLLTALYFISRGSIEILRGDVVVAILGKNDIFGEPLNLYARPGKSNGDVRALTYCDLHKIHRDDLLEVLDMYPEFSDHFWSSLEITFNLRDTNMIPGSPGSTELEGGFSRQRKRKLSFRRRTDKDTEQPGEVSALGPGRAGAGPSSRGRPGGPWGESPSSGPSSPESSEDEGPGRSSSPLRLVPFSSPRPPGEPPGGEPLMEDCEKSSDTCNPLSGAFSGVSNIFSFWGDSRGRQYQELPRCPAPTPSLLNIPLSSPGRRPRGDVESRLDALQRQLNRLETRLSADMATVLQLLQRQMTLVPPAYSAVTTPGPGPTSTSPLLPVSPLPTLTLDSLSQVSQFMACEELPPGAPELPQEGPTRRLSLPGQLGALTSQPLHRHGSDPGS
Summary of the method: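 Automated whole-cell patch clamp at room temperature on CHO-K1 cells over-expressing hERG, using K-fluoride/escin internal solution (pH 7.2) and NMDG-containing external solution (pH 7.4). Compounds were tested in a 6-point cumulative format, 0.33% final DMSO. Wells accepted only with seal >30 MegaOhm, Z′>0.4 and current >0.2 nA.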

[5] = molecular target: T1, PCSK9; assay: cell-based
Target sequence in this assay (Q8NBP7 31-152): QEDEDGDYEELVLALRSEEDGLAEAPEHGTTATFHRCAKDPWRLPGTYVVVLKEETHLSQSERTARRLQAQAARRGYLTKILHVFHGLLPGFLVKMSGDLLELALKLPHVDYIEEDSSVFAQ
Target sequence in this assay (Q8NBP7 153-692 V474I/G670E): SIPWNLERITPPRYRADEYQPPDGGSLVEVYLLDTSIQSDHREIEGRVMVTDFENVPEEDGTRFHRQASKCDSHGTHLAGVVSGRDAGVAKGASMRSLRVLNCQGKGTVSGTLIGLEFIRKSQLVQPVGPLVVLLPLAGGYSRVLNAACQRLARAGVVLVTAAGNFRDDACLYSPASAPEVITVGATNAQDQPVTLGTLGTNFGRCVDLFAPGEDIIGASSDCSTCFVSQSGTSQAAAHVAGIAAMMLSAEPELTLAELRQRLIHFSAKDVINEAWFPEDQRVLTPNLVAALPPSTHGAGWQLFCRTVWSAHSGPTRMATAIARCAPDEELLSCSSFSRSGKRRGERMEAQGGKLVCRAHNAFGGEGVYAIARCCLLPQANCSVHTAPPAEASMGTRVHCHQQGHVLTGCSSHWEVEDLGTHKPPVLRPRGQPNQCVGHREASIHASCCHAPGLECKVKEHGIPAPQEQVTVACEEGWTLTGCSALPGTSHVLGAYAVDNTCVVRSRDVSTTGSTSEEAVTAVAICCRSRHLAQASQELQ
From the text: This assay measures for PCSK9 antagonist activity based on a test compound's capacity to restore LDL-C uptake in HepG2 cells. The assay is based on exogenous PCSK9 and LDL-C complexed with a pH-sensitive dye. Outside the cells, at neutral pH, the pHrodo Red-LDL is dimly fluorescent but upon LDLR mediated endocytosis it fluoresces brightly. PCSK9 traffics the LDLR to intracellular degradation and reduces uptake of LDL-C. Inhibition of PCSK9 reduces LDLR degradation and the increased LDL-C uptake is quantified by fluorescence microscopy.
Cell medium: MEM supplemented with 10% FBS, 1× NEAA and Sodium Pyruvate
Assay medium: OptiMem supplemented with penicillin/streptomycin
Cells: HepG2 (ATCC #HB-8065)
Cryopreserved HepG2 cells were thawed in assay medium and centrifuged for 5 min at 250 g. Supernatant was discarded and the cell pellet resuspended in cell medium and counted with a Nucleocounter. Cells were again centrifuged 5 min at 250 g and the pellet was resuspended to 500000 cells/mL in assay medium. • 2. 20 μL of above cell mix was dispensed into black pclear TC treated 384 well plates with Multidrop Combi and left at room temperature for 20 minutes. • 3. Plates were incubated at 37° C., 5% CO2 for 24 h
Test compounds were prepared in concentration response in DMSO with a half-log dilution factor in DMSO in Echo 384 LDV plates starting at 10 mM. • 2. 30 nL of above test compounds were dispensed with Echo 655 to cells for a top concentration of 10 μM • 3. […] Plates were incubated at 37° C., 5% CO2 for 24 h
10 μL pHrodo Red-LDL in assay medium was dispensed to cells with Multidrop Combi for 6 μg/mL • 2. Plates were incubated at 37° C., 5% CO2 and imaged with the Incucyte S3 after 4 h and 24 h
Image data was processed using Incucyte 2021, a software to identify cells and red fluorescent intensity. Screener was used to further process data. Data was normalized as % effect of the signal between median values of the on-plate controls of DMSO and 100 nM Evolocumab according to the formula % effect=−100*(x−DMSO)/(Evolocumab−DMSO) where x equals the measured signal. Concentration response data of the normalized values were fitted using a four-parameter logistic fit.

PCSK9 (Homo sapiens, UniProt Q8NBP7), sequence (Q8NBP7 31-692): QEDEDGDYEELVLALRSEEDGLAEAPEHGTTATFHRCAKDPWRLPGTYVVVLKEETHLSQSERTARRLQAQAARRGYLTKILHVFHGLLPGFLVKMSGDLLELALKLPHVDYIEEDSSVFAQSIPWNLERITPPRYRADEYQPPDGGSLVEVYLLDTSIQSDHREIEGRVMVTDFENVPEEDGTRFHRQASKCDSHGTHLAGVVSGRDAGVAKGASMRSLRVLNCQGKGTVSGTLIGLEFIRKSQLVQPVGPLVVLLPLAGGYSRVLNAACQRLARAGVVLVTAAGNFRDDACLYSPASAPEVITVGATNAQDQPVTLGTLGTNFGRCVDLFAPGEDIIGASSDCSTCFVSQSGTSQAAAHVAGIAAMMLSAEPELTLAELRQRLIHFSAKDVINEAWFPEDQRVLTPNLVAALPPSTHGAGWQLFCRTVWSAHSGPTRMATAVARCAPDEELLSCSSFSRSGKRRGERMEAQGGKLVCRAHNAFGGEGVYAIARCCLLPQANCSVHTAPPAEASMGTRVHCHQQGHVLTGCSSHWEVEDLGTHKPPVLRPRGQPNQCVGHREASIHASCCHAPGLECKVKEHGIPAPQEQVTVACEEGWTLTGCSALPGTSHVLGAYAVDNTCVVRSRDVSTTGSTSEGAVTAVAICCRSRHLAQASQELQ

O=c1ccccn1-c1ccc(N[C@H]2CC[C@H](Nc3nc4cc(CO)cnc4[nH]3)C2)nc1 [Example 61, 6′-(((1S,3S)-3-((6-(Hydroxymethyl)-3H-imidazo[4,5-b]pyridin-2-yl)amino)cyclopentyl)amino)-2H-[1,3′-bipyridin]-2-one]
Kd [1]: 11 nM | IC50 [2]: > 10 µM | IC50 [3]: 8.9 nM | IC50 [4]: > 40000 nM | IC50 [5]: 100 nM

Cc1cccn(-c2ccc(N[C@H]3CC[C@H](Nc4nc5cccnc5[nH]4)C3)nc2)c1=O [Example 40, 6′-(((1S,3S)-3-((3H-Imidazo[4,5-b]pyridin-2-yl)amino)cyclopentyl)amino)-3-methyl-2H-[1,3′-bipyridin]-2-one]
Kd [1]: 1 nM | IC50 [2]: 8.15 µM | IC50 [3]: 1.6 nM | IC50 [4]: > 40000 nM | IC50 [5]: 90 nM

COc1ccc(=O)n(-c2ccc(N[C@H]3CC[C@H](Nc4nc5cccnc5s4)C3)nc2)c1 [Example 25, 5-Methoxy-6′-(((1S,3S)-3-(thiazolo[5,4-b]pyridin-2-ylamino)cyclopentyl)amino)-2H-[1,3′-bipyridin]-2-one]
Kd [1]: 4 nM | IC50 [2]: 0.053 µM | IC50 [3]: 5.6 nM | IC50 [4]: > 40000 nM | IC50 [5]: 51 nM

CN1C(=O)CN(c2ccc(N[C@H]3CC[C@H](Nc4nc5cccnc5[nH]4)C3)nc2)C1=O [Example 37, 1-(6-(((1S,3S)-3-((3H-Imidazo[4,5-b]pyridin-2-yl)amino)cyclopentyl)amino)pyridin-3-yl)-3-methylimidazolidine-2,4-dione]
Kd [1]: 3 nM | IC50 [2]: > 10 µM | IC50 [3]: 4.4 nM | IC50 [4]: > 40000 nM | IC50 [5]: 127 nM

O=c1ccccn1-c1ccc(N[C@H]2CC[C@H](Nc3nc4ncccc4s3)C2)nc1 [Example 20, 6′-(((1S,3S)-3-(Thiazolo[4,5-b]pyridin-2-ylamino)cyclopentyl)amino)-2H-[1,3′-bipyridin]-2-one]
Kd [1]: 672 nM | IC50 [2]: > 10 µM | IC50 [3]: 603 nM | IC50 [4]: > 40100 nM

O=c1ccccn1-c1ccc(N[C@H]2CC[C@H](Nc3nc4ccccc4[nH]3)C2)nc1 [Example 10, 6′-(((1S,3S)-3-((1H-Benzo[d]imidazol-2-yl)amino)cyclopentyl)amino)-2H-[1,3′-bipyridin]-2-one]
Kd [1]: 1550 nM | IC50 [2]: > 10 µM | IC50 [3]: 2470 nM | IC50 [4]: 4000 nM

O=c1ccccn1-c1ccc(N[C@H]2CC[C@H](Nc3nc4ccc(CO)cc4o3)C2)nc1 [Example 4, 6′-(((1S,3S)-3-((6-(Hydroxymethyl)benzo[d]oxazol-2-yl)amino)cyclopentyl)amino)-2H-[1,3′-bipyridin]-2-one]
Kd [1]: 49 nM | IC50 [2]: > 10 µM | IC50 [3]: 32.2 nM | IC50 [4]: > 40000 nM

Cn1ccc(=O)n(-c2ccc(N[C@H]3CC[C@H](Nc4nc5cccnc5s4)C3)nc2)c1=O [Example 82, 1-Methyl-3-(6-(((1S,3S)-3-(thiazolo[5,4-b]pyridin-2-ylamino)cyclopentyl)amino)pyridin-3-yl)pyrimidine-2,4(1H,3H)-dione]
Kd [1]: 1 nM | IC50 [2]: > 10 µM | IC50 [3]: 2.3 nM | IC50 [4]: > 40100 nM | IC50 [5]: 124 nM

O=c1ccc2cccnc2n1-c1ccc(N[C@H]2CC[C@H](Nc3nc4cccnc4[nH]3)C2)nc1 [Example 34, 1-(6-(((1S,3S)-3-((3H-Imidazo[4,5-b]pyridin-2-yl)amino)cyclopentyl)amino)pyridin-3-yl)-1,8-naphthyridin-2(1H)-one]
Kd [1]: 1 nM | IC50 [2]: > 10 µM | IC50 [3]: 1.2 nM | IC50 [4]: > 40000 nM | IC50 [5]: 98 nM

O=c1c(Cl)cccn1-c1ccc(N[C@H]2CC[C@H](Nc3nc4cccnc4s3)C2)nc1 [Example 24, 3-Chloro-6′-(((1S,3S)-3-(thiazolo[5,4-b]pyridin-2-ylamino)cyclopentyl)amino)-2H-[1,3′-bipyridin]-2-one]
Kd [1]: 0.1 nM | IC50 [2]: > 10 µM | IC50 [3]: 0.7 nM | IC50 [4]: 13900 nM | IC50 [5]: 76 nM

COc1cccc(F)c1-c1ccc(N[C@H]2CC[C@H](Nc3nc4cccnc4[nH]3)C2)nc1 [Example 67, (1S,3S)—N^1-(5-(2-Fluoro-6-methoxyphenyl)pyridin-2-yl)-N^3-(3H-imidazo[4,5-b]pyridin-2-yl)cyclopentane-1,3-diamine]
Kd [1]: 57 nM | IC50 [2]: > 10 µM | IC50 [3]: 18.1 nM | IC50 [4]: 3980 nM

O=c1ccccn1-c1ccc(N[C@H]2CC[C@H](Nc3nc4cccnc4o3)C2)nc1 [Example 11, 6′-(((1S,3S)-3-(Oxazolo[5,4-b]pyridin-2-ylamino)cyclopentyl)amino)-2H-[1,3′-bipyridin]-2-one]
Kd [1]: 24 nM | IC50 [2]: > 10 µM | IC50 [3]: 28 nM | IC50 [4]: > 40000 nM

CSc1cnc2[nH]c(N[C@H]3CC[C@H](Nc4ccc(-n5ccccc5=O)cn4)C3)nc2c1 [Example 59, 6′-(((1S,3S)-3-((6-(Methylthio)-3H-imidazo[4,5-b]pyridin-2-yl)amino)cyclopentyl)amino)-2H-[1,3′-bipyridin]-2-one]
IC50 [2]: 0.794 µM | IC50 [3]: 3.7 nM | IC50 [4]: > 13500 nM | IC50 [5]: 106 nM

Cn1c(=O)n(-c2ccc(N[C@H]3CC[C@H](Nc4nc5cccnc5[nH]4)C3)nc2)c2ccccc21 [Example 36, 1-(6-(((1S,3S)-3-((3H-Imidazo[4,5-b]pyridin-2-yl)amino)cyclopentyl)amino)pyridin-3-yl)-3-methyl-1,3-dihydro-2H-benzo[d]imidazol-2-one]
IC50 [2]: > 10 µM | IC50 [3]: 0.6 nM | IC50 [4]: 25800 nM | IC50 [5]: 60 nM

O=c1ccccn1-c1ccc(N[C@H]2CC[C@H](Nc3nc4nccnc4[nH]3)C2)nc1 [Example 80, 6′-(((1S,3S)-3-((1H-Imidazo[4,5-b]pyrazin-2-yl)amino)cyclopentyl)amino)-2H-[1,3′-bipyridin]-2-one]
IC50 [2]: 0.305 µM | IC50 [3]: 5.1 nM | IC50 [4]: > 40000 nM | IC50 [5]: 158 nM

O=c1ccccn1-c1ccc(N[C@H]2CC[C@H](Nc3nc4cc(Br)cnc4s3)C2)nc1 [Compound 87, 6′-(((1S,3S)-3-((6-Bromothiazolo[5,4-b]pyridin-2-yl)amino)cyclopentyl)amino)-2H-[1,3′-bipyridin]-2-one]
IC50 [2]: 6.74 µM | IC50 [3]: 1.4 nM | IC50 [4]: 4310 nM | IC50 [5]: 410 nM

O=c1ccccn1-c1ccc(N[C@H]2CC[C@H](Nc3nc4cc(OC(F)F)cnc4[nH]3)C2)nc1 [Example 60, 6′-(((1S,3S)-3-((6-(Difluoromethoxy)-3H-imidazo[4,5-b]pyridin-2-yl)amino)cyclopentyl)amino)-2H-[1,3′-bipyridin]-2-one]
Kd [1]: 1 nM | IC50 [3]: 0.6 nM | IC50 [4]: 33000 nM | IC50 [5]: 41 nM

O=c1ccc(Cl)cn1-c1ccc(N[C@H]2CC[C@H](Nc3nc4cccnc4[nH]3)C2)nc1 [Example 71, 6′-(((1S,3S)-3-((3H-Imidazo[4,5-b]pyridin-2-yl)amino)cyclopentyl)amino)-5-chloro-2H-[1,3′-bipyridin]-2-one]
IC50 [2]: 2.83 µM | IC50 [3]: 2.6 nM | IC50 [4]: > 40000 nM | IC50 [5]: 123 nM
